Where “and” joins values, the source holds several entries; their conditions need not be identical. Equal entries are not always repeated. Structures can show the parent of a compound that is named as a salt. Where two headings read alike, the source gives them in different places.
Legend:
p53RE-bla HCT-116 cells [1] = test system: p53RE-bla HCT-116 cells
[2] = test system: p53 signaling (p53RE-bla HCT-116 cells)
[3] = test system: p53 signaling (p53RE-bla HCT-116 cells); assay: cells; format: cell-based
p53RE-bla HCT-116 cells [4] = assay: cells; conditions: Homo sapiens
[5] = test system: p53 signaling (p53RE-bla HCT-116 cells); assay: cells; conditions: Homo sapiens; for EC50: HCT-116, read-out: p53 activation EC50, primary screening
[6] = test system: p53 signaling (p53RE-bla HCT-116 cells); remark: listed apart in the source
[7] = HCT-116, read-out: Viability EC50
[8] = HCT-116, read-out: Viability EC50, cherry pick confirmation
[9] = HCT-116, read-out: p53 activation efficacy, primary screening
[10] = read-out: EC50, viability, cherry pick confirmation
[11] = read-out: EC50, viability, primary screening
[12] = Homo sapiens, HCT-116, read-out: EC50, p53 activation, cherry pick confirmation
[13] = Homo sapiens, HCT-116, read-out: EC50, p53 activation, primary screening
[14] = Homo sapiens, HCT-116, read-out: Efficacy, p53 activation, cherry pick confirmation
[15] = Homo sapiens, HCT-116, read-out: Efficacy, p53 activation, primary screening
[16] = HCT-116, read-out: EC50, viability, cherry pick confirmation
[17] = HCT-116, read-out: EC50, viability, primary screening
[18] = Homo sapiens, HCT-116, read-out: p53 activation EC50, cherry pick confirmation
[19] = Homo sapiens, HCT-116, read-out: p53 activation EC50, primary screening
[20] = Homo sapiens, HCT-116, read-out: p53 activation efficacy, cherry pick confirmation
[21] = Homo sapiens, HCT-116, read-out: p53 activation efficacy, primary screening

Row | SMILES | Viability EC50, cherry pick confirmation (p53RE-bla HCT-116 cells [1]) | p53 activation EC50, cherry pick confirmation [2] | p53 activation EC50, primary screening [2] | p53 activation efficacy, cherry pick confirmation [2] | p53 activation efficacy, primary screening [2] | EC50 (p53RE-bla HCT-116 cells [4]; [8]) | p53 activation EC50, cherry pick confirmation [6] | p53 activation efficacy, cherry pick confirmation [6] | EC50, p53 activation, cherry pick confirmation [2] | EC50, p53 activation, primary screening [2] | Efficacy, p53 activation, cherry pick confirmation [2] | Efficacy, p53 activation, primary screening [2] | EC50 [3, 12] | EC50 [3, 13] | Emax [3, 14] | Emax [3, 15] | EC50 (p53RE-bla HCT-116 cells [4]; [16]) | EC50, p53 activation, cherry pick confirmation [6] | EC50, p53 activation, primary screening [6] | Efficacy, p53 activation, cherry pick confirmation [6] | other results
1 | Nc1nc(N)c2nc(CNc3ccc(C(=O)N[C@@H](CCC(=O)O)C(=O)O)cc3)cnc2n1 [Aminopterin] | – | – | – | – | – | – | – | – | – | – | – | – | – | – | – | – | – | – | – | – | Viability EC50 (p53RE-bla HCT-116 cells [1]): inactive; p53 activation EC50 [2]: inactive; p53 activation efficacy [2]: inactive; p53 activation efficacy [3]: 45.6293; Emax ([3]; Homo sapiens, HCT-116, read-out: p53 activation efficacy): 39.2%; EC50 (p53RE-bla HCT-116 cells [4]; [7]): 0.191 µM; Emax ([5]; HCT-116, read-out: p53 activation efficacy): 48.5%; p53 activation efficacy [6]: 37.0427
2 | CCOc1ccc2c(c1)C(C)=CC(C)(C)N2 [Ethoxyquin] | inactive | inactive | inactive | inactive | inactive | 51.1 µM | inactive | inactive | – | – | – | – | – | – | – | – | – | – | – | – | Viability EC50, primary screening (p53RE-bla HCT-116 cells [1]): inactive; EC50 (p53RE-bla HCT-116 cells [1]; read-out: Viability EC50, cherry pick confirmation): 48.2 µM; p53 activation EC50, cherry pick confirmation [3]: inactive; p53 activation EC50, primary screening [3]: inactive; p53 activation efficacy, cherry pick confirmation [3]: inactive; p53 activation efficacy, primary screening [3]: inactive; EC50 (p53RE-bla HCT-116 cells [4]; HCT-116, read-out: Viability EC50, primary screening): 54.2 µM; EC50 [5]: 39.1 µM; Emax [5, 9]: 50.4%
3 | CN(C)c1ccc(C(=C2C=CC(=[N+](C)C)C=C2)c2ccc(N(C)C)cc2)cc1 [Gentian Violet] | – | – | – | – | – | – | – | – | inactive | inactive | inactive | inactive | 23.6 µM | 51.1 µM | 48.7% | 65.5% | 22 µM | inactive | inactive | inactive | EC50 (p53RE-bla HCT-116 cells [1]; [10]): 27.6 µM and 21.3 µM; EC50 (p53RE-bla HCT-116 cells [1]; [11]): 16 µM and 24.9 µM; EC50 (p53RE-bla HCT-116 cells [4]; [17]): 29.2 µM; Efficacy, p53 activation, primary screening [6]: inactive
4 | Oc1c(Cl)cc(Cl)c(Cl)c1Cc1c(O)c(Cl)cc(Cl)c1Cl [Hexachlorophene] | inactive | inactive | inactive | inactive | inactive | 2.23 µM | inactive | inactive | – | – | – | – | – | – | – | – | – | – | – | – | EC50 [3, 18]: 18 µM; EC50 [3, 19]: 19.9 µM; Emax [3, 20]: 99.6%; Emax [3, 21]: 45.4%; p53 activation EC50, primary screening [6]: inactive; p53 activation efficacy, primary screening [6]: inactive
5 | CC(C)=CCC1=C(O)C(=O)c2ccccc2C1=O [Lapachol] | – | – | – | – | – | – | – | – | – | – | – | – | – | – | – | – | – | – | – | – | Viability EC50 (p53RE-bla HCT-116 cells [1]): inactive; p53 activation EC50 [2]: inactive; p53 activation efficacy [3]: 104.839; EC50 ([3]; read-out: p53 activation EC50): 3.38 µM; EC50 (p53RE-bla HCT-116 cells [4]; [7]): 1.38 µM; p53 activation EC50 [6]: inactive
6 | COC(=O)C1=C(C)NC(COC(N)=O)=C(C(=O)OC(C)C)C1c1cccc(Cl)c1Cl (stereo not drawn) [Lemildipine] | inactive | inactive | inactive | inactive | inactive | 19.9 µM | inactive | inactive | – | – | – | – | – | – | – | – | – | – | – | – | Viability EC50, primary screening (p53RE-bla HCT-116 cells [1]): inactive; Viability efficacy, primary screening (p53RE-bla HCT-116 cells [1]): inactive; p53 activation EC50, cherry pick confirmation [3]: inactive; p53 activation EC50, primary screening [3]: inactive; p53 activation efficacy, cherry pick confirmation [3]: inactive; p53 activation efficacy, primary screening [3]: inactive; EC50 [5]: 20.7 µM; Emax [5, 9]: 59.7%
7 | CC1=CC(=O)c2ccccc2C1=O [Menadione] | – | – | – | – | – | – | – | – | inactive | inactive | inactive | inactive | 16.2 µM | 40.3 µM | 33.9% | 31.2% | 36.3 µM | inactive | inactive | inactive | EC50 (p53RE-bla HCT-116 cells [1]; [10]): 42.4 µM; EC50 (p53RE-bla HCT-116 cells [1]; [11]): 42.4 µM and 46.3 µM; EC50 (p53RE-bla HCT-116 cells [4]; [17]): 51.3 µM; Efficacy, p53 activation, primary screening [6]: inactive
8 | Cc1nc(N)nc(N)c1-c1ccc(Cl)c(Cl)c1 [Methodichlorophen] | – | – | – | – | – | – | – | – | inactive | inactive | inactive | inactive | 9.01 µM | 5.92 µM | 31.4% | 42.9% | 1.58 µM | inactive | inactive | inactive | EC50, viability, cherry pick confirmation (p53RE-bla HCT-116 cells [1]): inactive; EC50, viability, primary screening (p53RE-bla HCT-116 cells [1]): inactive; Efficacy, viability, primary screening (p53RE-bla HCT-116 cells [1]): inactive; Efficacy, p53 activation, primary screening [6]: inactive
9 | CN(C)c1ccc2nc3ccc(=[N+](C)C)cc-3sc2c1 [Methylene blue] | inactive | inactive | inactive | inactive | inactive | 15.8 µM | inactive | inactive | – | – | – | – | – | – | – | – | – | – | – | – | Viability EC50, primary screening (p53RE-bla HCT-116 cells [1]): inactive; Viability efficacy, primary screening (p53RE-bla HCT-116 cells [1]): inactive; EC50 [3, 18]: 15.3 µM; EC50 [3, 19]: 10.3 µM; Emax [3, 20]: 53.2%; Emax [3, 21]: 53.4%; p53 activation EC50, primary screening [6]: inactive; p53 activation efficacy, primary screening [6]: inactive
10 | CO[C@@]12[C@H](COC(N)=O)C3=C(C(=O)C(C)=C(N)C3=O)N1C[C@@H]1N[C@@H]12 [Mitomycin C] | – | – | – | – | – | – | – | – | inactive | inactive | inactive | inactive | 2.12 µM | – | 134% | – | 17.8 µM | inactive | – | inactive | EC50, viability, cherry pick confirmation (p53RE-bla HCT-116 cells [1]): inactive; EC50, viability, primary screening (p53RE-bla HCT-116 cells [1]): inactive; Efficacy, viability, primary screening (p53RE-bla HCT-116 cells [1]): inactive
11 | CC[C@@]1(O)C(=O)OCc2c1cc1n(c2=O)Cc2cc3c(CN(C)C)c(O)ccc3nc2-1 [Topotecan hydrochloride] | – | – | – | – | – | – | – | – | inactive | inactive | inactive | inactive | 0.589 µM | 0.0771 µM | 179% | 69.5% | 3.98 µM | inactive | inactive | inactive | EC50, viability, cherry pick confirmation (p53RE-bla HCT-116 cells [1]): inactive; EC50, viability, primary screening (p53RE-bla HCT-116 cells [1]): inactive; Efficacy, viability, primary screening (p53RE-bla HCT-116 cells [1]): inactive; Efficacy, p53 activation, primary screening [6]: inactive
